pIC50: −log10 of the molar value.
Columns and labels:
[1] = In vivo pharmacokinetics in mice, IV and oral; set-up: species or system male C57BL/6J mice
Procedure: The animals were classified according to weight and divided into the following groups (Table 7):
20% Kolliphor and 50% PBS at a concentration of 1 mg/mL. From this solution, a 0.4 mg/mL dilution was made for IV administration.
In intravenous (IV) administration, after each compound was administered to the mice, the mice were separated into groups of 3 and were euthanized at times 5, 10, 15, 30, 60, 120, 240, 260, 480 and 1440 minutes. For oral administration (V.O), the mice were separated into groups of 3 and were euthanized at times 15, 30, 60, 120, 240, 260, 480 and 1440 minutes. To obtain zero-time assays, mice were used to which no compound was administered.
Whole blood was obtained from each animal (in microtubes with EDTA); these samples were centrifuged at 9000 g at a temperature of 4° C. for a period of 5 minutes, obtaining the plasma which was stored at −80° C.
In addition, organs such as brain, liver, muscle, epididymal fat, heart and kidney were obtained from the animals, which were frozen in liquid nitrogen and stored at −80° C.
Plasma samples and brain, liver, epididymal fat, and muscle (tissue) samples were analyzed. 2× in volume of water (weight/volume) was added to the tissue samples while 4× in volume of water (weight/volume) was added to the muscle mixture, after which they were homogenized using a Bullet Blender equipment (Next Advance, USA).
All samples were analyzed as a single point by LC-MS/MS in accordance with the analytical methodology already standardized and presented in application example 3.
To begin, a calibration curve was run. For this purpose, the controls, the plasma and organ samples were prepared by adding 180 μL of cold acetonitrile to these, then vortexed for 15 seconds and centrifuged at 6100 g for 30 seconds at 4° C. The supernatant which was obtained from this procedure was diluted in 2 volumes of 0.2% formic acid in water and transferred to a vial that will allow it to be injected into LC-MS/MS.
The conditions for the LC-MS/MS analysis were: • HPLC: Eksigent UltraLC 100 • Autosampler: Eksigent UltraLC 100-XL at RT • Mobile phase: A-0.1% formic acid in water; B-0.1% formic acid in acetonitrile. • Column: YMC Triart 1.9 μm; 2.0×50 mm • Injection volume: 2 μL • Gradient: 5% B for 0.25 min→5-95% B for 0.75 min→95% B for 2 min→95-5% B for 0.25 min→5% B for 0.25 min • Flow: 0.6 mL/min • Mass Spectrometer: Applied Biosystems/SCIEX QTRAP 4500 • Interface: TurbolonSpray (ESI) at 600° C. • Software: Analyst.

[2] = test system: Madin-Darby Canine Kidney (MDCK) cells transfected with human P-glycoprotein (hMDR1); settings: MDCK-MDR1
Procedure: Madin-Darby Canine Kidney (MDCK) cells were used in this assay, which are stably transfected with the gene encoding human P-glycoprotein (hMDR1). These cells were cultured in DMEM medium (Dulbecco's Modified Eagle's Medium) high in glucose and supplemented with 10% fetal bovine serum, 1% 5 mM pyruvate, 1% non-essential amino acids solution X5, 20,000 IU/mL of penicillin G and 20,000 IU/mL of streptomycin, a temperature of 37° C., 90% relative humidity and 5% CO2. These cells were seeded in sterile plates on the fourth day of growth or until reaching 90% confluence.
Ten days before carrying out the transport analysis, cells were seeded in Transwells® inserts (1.12 cm2) at a density of 60,000 cells/cm^2. The monolayers were supplemented every two days with fresh culture medium. […] In parallel, B-A experiments were performed (1.5 mL of donor solution in basolateral compartment and 0.5 mL buffer in apical). The monolayers were incubated while stirring (50 rpm) at a temperature of 37° C. for a period of 2 hours. Additionally, this assay was performed in the presence of the Pgp inhibitor elacridar (5 μM). After the stir time, the inserts were removed, the compartments were sampled and the cells were transferred to HPLC vials by diluting these samples with mobile phase chromatography. These samples were kept at −20° C. until their analysis time. […]

[3] = target: recombinant 11β-HSD1 enzyme (Homo sapiens (Human), UniProt P28845); assay: 11β-HSD1 reductase activity (HTRF Cortisol Kit); format: biochemical; settings: 266 nM cortisone, 333 μM NADPH, read-out: 11b-HSD1 reductase (HTRF) IC50
Sequence of recombinant 11β-HSD1 enzyme (P28845 whole entry): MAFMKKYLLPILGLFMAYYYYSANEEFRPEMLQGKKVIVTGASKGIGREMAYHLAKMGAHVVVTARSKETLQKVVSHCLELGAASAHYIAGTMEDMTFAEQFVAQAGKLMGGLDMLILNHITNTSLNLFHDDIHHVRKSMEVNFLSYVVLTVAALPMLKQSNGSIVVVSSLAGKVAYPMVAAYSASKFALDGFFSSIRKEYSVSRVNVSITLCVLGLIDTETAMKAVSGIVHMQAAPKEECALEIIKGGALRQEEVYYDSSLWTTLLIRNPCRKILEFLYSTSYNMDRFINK
Procedure: Determination of 11β-HSD1 Reductase Activity
First, stock solutions of the compounds were prepared in DMSO at a concentration of […], of which serial dilutions were made in order to determine the efficacy curve.
As for the recombinant 11β-HSD1 enzyme (Cayman Chemical, MI, USA; Item No. 10007815), it was prepared in Tris Buffer 20 mM EDTA 5 mM pH 6.0 (Tris buffer) at different dilutions.
Initially, the enzyme concentration to be used in the assays in order to evaluate the biological activity of the compounds was determined. The Cortisol Kit product (Cisbio, MA, USA; Cat no. 62CRTPEG) was used for that purpose.
The protocol consisted of preparing the reaction buffer, adding 266 nM cortisone and 333 μM NADPH in Tris buffer. Then, this reaction buffer is added to the wells of the HTRF (Homogeneous Time Resolved Fluorescence) reaction plate together with the enzyme in a 4:1 ratio respectively, and incubated for 2 hours at 37° C. In the case of the control wells, two wells with Tris buffer were added, without compounds.
After the incubation time, the reagents of the Cortisol kit were added, Cortisol d2 and Cortisol cryptate in sample ratio, Cortisol d2 and cortisol cryptate 2:1:1, in a quantity according to the size of the well as indicated by the supplier (for the negative control of the kit, the cortisol d2 is replaced by the kit's reconstitution buffer). This reaction is incubated for 1 hour at room temperature in order to later read the fluorescence at 665 and 620 nm.
Once the enzyme concentration to be used has been determined, the cortisol kit protocol is continued to determine the efficacy curve for the compounds. As previously done, a plate for HTRF was prepared adding to each well of the reaction buffer, the recombinant 11β-HSD1 enzyme and the compounds to be assayed in a 3:1:1 ratio, respectively. The plate was subsequently incubated at 37° C. for 2 hours.
After the incubation time, the reagents of the cortisol kit, cortisol d2 and cortisol cryptate, are added, and were incubated again for 1 hour at room temperature. Finally, the fluorescence of each well was determined at 665 and 620 nm.

Question: Which results are given for `Cc1cccc(CCc2nc(C34CC5CC(CC(C5)C3)C4)no2)c1` [BD-40, 1-(3-methylphenyl)-2-(3-adamantyl-1,2,4-oxadiazol-5-yl)ethane]?
Answer: AUCExtr ([1]; IV, 2 mg/Kg, plasma): 5.240%; AUCInf ([1]; IV, 2 mg/Kg, plasma): 623 ng·h/mL; AUCfinal ([1]; IV, 2 mg/Kg, plasma): 649 ng·h/mL; C0/Cmax ([1]; IV, 2 mg/Kg, plasma): 2200 ng/mL; CL ([1]; IV, 2 mg/Kg, plasma): 53.5 mL/min/kg; MRTInf ([1]; IV, 2 mg/Kg, plasma): 87.6 min; Vz ([1]; IV, 2 mg/Kg, plasma): 15.30 L/kg; t1/2 ([1]; IV, 2 mg/Kg, plasma): 198 min; AUCExtr ([1]; PO, dose 3 mg/Kg, plasma): 3.6%; AUCInf ([1]; PO, dose 3 mg/Kg, plasma): 596 ng·h/mL; AUCfinal ([1]; PO, dose 3 mg/Kg, plasma): 575 ng·h/mL; C0/Cmax ([1]; PO, dose 3 mg/Kg, plasma): 393 ng/mL; CL ([1]; PO, dose 3 mg/Kg, plasma): 280 mL/min/kg; F ([1]; PO, dose 3 mg/Kg, plasma): 19.1%; Vz ([1]; PO, dose 3 mg/Kg, plasma): 168 L/kg; t1/2 ([1]; PO, dose 3 mg/Kg, plasma): 32.3 min; tmax ([1]; PO, dose 3 mg/Kg, plasma): 30 min; mean time (of elimination) of the drug ([1]; administered intravenously, plasma): 3.30 h; mean time (of elimination) of the drug ([1]; administered orally, plasma): 0.864 h; detection in tissues (brain, liver, fat, muscle) ([1]; oral and intravenous administration): can be detected in the different tissues; bioavailability / apparent availability ([1]; plasma): good bioavailability; Papp compared with high permeability marker minoxidil [2]: higher than those of the high permeability marker minoxidil; pIC50 [3]: 7.93
